Results as given in ChEMBL document CHEMBL1201862, “PubChem BioAssay data set” (2004).
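Cultured in 96-well plates, cells were exposed to test compound for 48 hours across five concentrations. Here, GI50 denotes the concentration required for 50% inhibition of growth.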 Activity calls are given as the source filed them. Cut-off read from the data, not from the text of the source: active = GI50 up to about 1.1 µM and inactive = higher.

Legend:
Assay in all cases: NCI tumour cell line growth inhibition, 48 h
[1] = test system: MDA-MB-231
[2] = test system: NCI-H226
[3] = test system: SNB-19
[4] = test system: UO-31
[5] = test system: PC-3
[6] = test system: NCI/ADR-RES
[7] = test system: SNB-75
[8] = test system: MCF7
[9] = test system: OVCAR-8
[10] = test system: A549
[11] = test system: OVCAR-5
[12] = test system: HL-60
[13] = test system: TK-10
[14] = test system: NCI-H460
[15] = test system: HT-29
[16] = test system: SF-268
[17] = test system: RXF 393
[18] = test system: NCI-H522
[19] = test system: CCRF-CEM
[20] = test system: MDA-MB-435

SMILES | GI50 [1] | GI50 [2] | GI50 [3] | GI50 [4] | GI50 [5] | GI50 [6] | GI50 [7] | GI50 [8] | GI50 [9] | GI50 [10] | GI50 [11] | GI50 [12] | GI50 [13] | GI50 [14] | GI50 [15] | GI50 [16] | GI50 [17] | GI50 [18] | GI50 [19] | GI50 [20]
CCCOc1ccc(-c2nc(-c3ccc(/N=C/c4ccc(N(CCOS(C)(=O)=O)CCOS(C)(=O)=O)cc4C)cc3)cs2)cc1 | 34 µM (inactive) | 22.9 µM (inactive) | 41.7 µM (inactive) | 11.7 µM (inactive) | 18.5 µM (inactive) | 23.6 µM (inactive) | 2.78 µM (inactive) | 15.2 µM (inactive) | 25.5 µM (inactive) | 4.59 µM (inactive) | 31.9 µM (inactive) | 5.05 µM (inactive) | 18.8 µM (inactive) | 0.286 µM (active) | 17.9 µM (inactive) | 11.5 µM (inactive) | 6.08 µM (inactive) | 2.16 µM (inactive) | 2.58 µM (inactive) | 33.8 µM (inactive)
CN(C)/N=N/c1[nH]cnc1C(N)=O [DACARBAZINE] | 51.3 µM (inactive) | 75.2 µM (inactive) | > 99.1 µM (inactive) | 32.1 µM (inactive) | > 96.4 µM (inactive) | 66.4 µM (inactive) | 35.7 µM (inactive) | 89.7 µM (inactive) | 44.5 µM (inactive) | 96.2 µM (inactive) | 81.5 µM (inactive) | 14.9 µM (inactive) | 41.6 µM (inactive) | 49.5 µM (inactive) | 87.7 µM (inactive) | 63.8 µM (inactive) | 82.8 µM (inactive) | 67.1 µM (inactive) | 11.6 µM (inactive) | 84.5 µM (inactive)
CC1(C)C2CC(O)C1(C)CC2=O (stereo not given) | > 100 µM (inactive) | > 100 µM (inactive) | > 100 µM (inactive) | > 100 µM (inactive) | > 100 µM (inactive) | > 100 µM (inactive) | > 100 µM (inactive) | > 100 µM (inactive) | > 100 µM (inactive) | > 100 µM (inactive) | > 100 µM (inactive) | > 100 µM (inactive) | > 100 µM (inactive) | > 100 µM (inactive) | > 100 µM (inactive) | > 100 µM (inactive) | > 100 µM (inactive) | > 100 µM (inactive) | > 100 µM (inactive) | > 100 µM (inactive)
CC(=O)Nc1ccccc1C=C1c2ccccc2-c2ccccc21 | 17.7 µM (inactive) | 28 µM (inactive) | 17.8 µM (inactive) | 16.2 µM (inactive) | 41.8 µM (inactive) | 18.7 µM (inactive) | 17.9 µM (inactive) | 20.9 µM (inactive) | 21.7 µM (inactive) | 24.1 µM (inactive) | 35.9 µM (inactive) | > 100 µM (inactive) | 31.3 µM (inactive) | 34.7 µM (inactive) | > 100 µM (inactive) | > 100 µM (inactive) | 20.8 µM (inactive) | 20.2 µM (inactive) | 48 µM (inactive) | > 100 µM (inactive)
O=c1[nH][nH]c(=O)n1CCCCCCn1c(=O)[nH][nH]c1=O | > 100 µM (inactive) | > 100 µM (inactive) | > 100 µM (inactive) | > 100 µM (inactive) | > 100 µM (inactive) | > 100 µM (inactive) | > 100 µM (inactive) | > 100 µM (inactive) | > 100 µM (inactive) | > 100 µM (inactive) | > 100 µM (inactive) | > 100 µM (inactive) | > 100 µM (inactive) | > 100 µM (inactive) | > 100 µM (inactive) | > 100 µM (inactive) | > 100 µM (inactive) | > 100 µM (inactive) | > 100 µM (inactive) | > 100 µM (inactive)
